# Experimental data taken from EP0974351A2, “Medicament for preventing and treating gastrointestinal damage” (JOUVEINAL, priority 1998, dated 2000).
# What was measured:
# [1] = tested on: gastric lesions caused by indomethacin; test: Indomethacin-induced gastric lesions in rats (gabapentin pretreatment); type: in vivo, Male Sprague-Dawley rats; settings: for gastric lesion (square area of visible lesions): indomethacin alone 42.6 ± 5.2
# Description: Gabapentin was evaluated in animals to determine its ability to prevent gastric lesions otherwise caused by indomethacin.
# Male Sprague-Dawley rats weighing 240 to 250 g were fasted for 24 hours and allowed free access to water prior to experiment. All test drugs were given intragastrically. Rats were pretreated with different doses of gabapentin at doses of 40 and 60 mg. Thirty minutes later indomethacin (25 mg/kg) was administered. Another group of rats received 10 mg of gabapentin twice, 3 hours apart, followed by indomethacin administration. Three hours after indomethacin treatment, the rats were killed and gastric lesions were assessed. The severity of the lesions were determined by the measurement of the square area (mm^2) of visible lesions.
# [2] = tested on: Abdominal Response Induced by Rectal Distension; test: Abdominal response induced by rectal distension in rats (electromyography); type: in vivo, Male Wistar rats
# Source text: (§1) The GABA analogs also have been evaluated for their ability to control and treat gastrointestinal disorders characterized as IBD and IBS. The assay utilized to evaluate the GABA analogs measures the effects of compound on lipopolysaccharide-induced delayed rectal allodynia in rats. Intraperitoneal (IP) injections of the endotoxin lipopolysaccharide (LPS) are known to induce long-lasting hyperalgesia in somatic pain models. The following assay was designed to evaluate the effect of IP injections of LPS on pain visceral threshold in an experimental model of rectal distension.
# (§2) Male Wistar rats weighing 250 to 350 g were surgically prepared for electromyography, according to a previously described technique. Rats were anesthetized by i.p. injection of acepromazine and ketamine (Imalgene 1000, Rhöne-Mérieux, Lyon, France) at doses of 0.6 and 120 mg/kg, respectively. […] Electrodes were exteriorized on the back of the neck and protected by a glass tube attached to the skin. Animals were individually housed in polypropylene cages and kept in a temperature-controlled room (21°C). They were allowed free access to water and food (UAR pellets, Epinay, France).
# (§3) Electromyographic recording began 5 days after surgery. The electrical activity of abdominal striated muscles was recorded with an electroencephalograph machine (Mini VIII, Alvar, Paris, France) using a short-time constant (0.03 sec) to remove low-frequency signals (<3 Hz) and a paper speed of 3.6 cm/minute.
# (§4) Rats were placed in plastic tunnels (6 cm diameter; 25 cm length) where they could not move, escape or turn around, in order to prevent damage to the balloon. They are accustomized to this procedure for 3 or 4 days before rectal distension (RD) in order to minimize stress reaction during experiments. […] The balloon used for distension was an arterial embolectomy catheter (Fogarty, Edwards Laboratories, Inc., Santa Ana, USA). RD was performed by insertion of the balloon (2-mm diameter; 2-cm long) in the rectum, at 1 cm of the anus, the catheter being fixed at the tail. It was inflated progressively by step of 0.4 mL, from 0 to 1.6 mL, each step of inflation lasting 5 minutes. To detect possible leakage, the volume of water introduced in the balloon was checked by complete removal with a syringe at the end of the distension period.
# In a first series of experiments, a group of 89 rats were submitted to gradual rectal distention. The animals were previously (30 minutes) treated by gabapentin at doses of 30 and 100 mg/kg IP or its vehicle ([…]).
# (§5) Statistical analysis of the number of abdominal contractions occurring during each 5-minute period during RD was performed by one-way ANOVA followed by Student's paired t-test. Values were expressed as the mean ± SEM, and differences were considered significant for p <0.05.
# [3] = tested on: LPS-Induced Delayed (12 Hours) Allodynia; test: LPS-induced delayed (12 hours) rectal allodynia in rats; type: in vivo, Male Wistar rats
# Source text: as §1, §2, §3, §4
# In a second series of experiments, the same group of 8 rats received IP lipopolysaccharide (E Coil, serotype 0111:B4) or its vehicle, at a dose of 1 mg/kg IP, 1 hour after a control rectal distension. […]
# as §5
smiles,measurement,setting,value
"NCC1(CC(=O)O)CCCCC1 [Gabapentin, 1-(aminomethyl)-cyclohexane acetic acid]",gastric lesion (square area of visible lesions),"[1]; gabapentin 10 mg twice, 3 hours apart, followed by indomethacin 25 mg/kg",4.2 ± 0.39 mm^2
same,gastric lesion (square area of visible lesions),"[1]; gabapentin 40 mg intragastrically 30 min before indomethacin 25 mg/kg, assessed 3 hours after indomethacin, mean ± SEM",22.3 ± 2.8 mm^2
same,gastric lesion (square area of visible lesions),[1]; gabapentin 60 mg/kg (so in the source) intragastrically 30 min before indomethacin 25 mg/kg,16.5 ± 2.2 mm^2
same,gastric bleeding,[1]; gabapentin pretreatment before indomethacin 25 mg/kg,dramatically reduced
same,Number of abdominal contractions/5 minutes,"[2]; Gabapentin 30 mg/kg IP 30 min before, volume of distension 0.4mL, vehicle 4.4 ± 1.6, mean ± SEM",5.0 ± 2.1 abdominal contractions/5 minutes
same,% of reduction vs vehicle,"[2]; Gabapentin 30 mg/kg IP, volume of distension 0.8 mL",-45%
same,Number of abdominal contractions/5 minutes,"[2]; Gabapentin 30 mg/kg IP, volume of distension 0.8 mL, vehicle 19.1 ± 2.8, p <0.01",10.6 ± 3.4 abdominal contractions/5 minutes
same,% of reduction vs vehicle,"[2]; Gabapentin 30 mg/kg IP, volume of distension 1.2 mL",-31.2%
same,Number of abdominal contractions/5 minutes,"[2]; Gabapentin 30 mg/kg IP, volume of distension 1.2 mL, vehicle 23.4 ± 2.6, p <0.05",16.1 ± 2.3 abdominal contractions/5 minutes
same,Number of abdominal contractions/5 minutes,"[2]; Gabapentin 100 mg/kg IP, volume of distension 0.4mL, vehicle 3.9 ± 1.8",2.0 ± 1.4 abdominal contractions/5 minutes
same,% of reduction vs vehicle,"[2]; Gabapentin 100 mg/kg IP, volume of distension 0.8 mL",-61.2%
same,Number of abdominal contractions/5 minutes,"[2]; Gabapentin 100 mg/kg IP, volume of distension 0.8 mL, vehicle 19.6 ± 2.3, p <0.01",7.6 ± 3.4 abdominal contractions/5 minutes
same,Number of abdominal contractions/5 minutes,"[2]; Gabapentin 100 mg/kg IP, volume of distension 1.2 mL, vehicle 19.1 ± 2.3",16.7 ± 2.9 abdominal contractions/5 minutes
same,Number of abdominal contractions/5 minutes,"[3]; LPS (1 mg/kg) + Gabapentin (3.0 mg/kg (so in the source)) IP 30 min before distension, 12 hours after LPS, 0.4 mL, LPS + vehicle 9.7 ± 1.0, p <0.001",0.7 ± 0.5 abdominal contractions/5 minutes
same,"% of reduction vs ""LPS/vehicle""","[3]; LPS (1 mg/kg) + Gabapentin (3.0 mg/kg (so in the source)) IP, 0.4 mL",-92.8%
same,Number of abdominal contractions/5 minutes,"[3]; LPS (1 mg/kg) + Gabapentin (3.0 mg/kg (so in the source)) IP, 0.8 mL, LPS + vehicle 11.7 ± 1.2",11.9 ± 0.8 abdominal contractions/5 minutes
same,Number of abdominal contractions/5 minutes,"[3]; LPS (1 mg/kg) + Gabapentin (3.0 mg/kg (so in the source)) IP, 1.2 mL, LPS + vehicle 23.5 ± 2.2",16.3 ± 3.2 abdominal contractions/5 minutes
